Results on one compound are retold here after patent US20260069693A1, “UROLITHINS AND T-CELL MEDIATED IMMUNE RESPONSE” (priority 2022, published 2026).

For assay [1], the system named is Th1/Th17 cell infiltration. The note with it: model of EAE; cited from earlier work.
The test system of a further assay is Nalm-6 cells. Put plainly: CD19-CAR T cell killing assay. It counts as cell-based, human. Particulars: 24 h co-culture, CAR T cells generated with UA vs DMSO. As for the experimental part: The cytotoxic activity of CD19-CAR T cells generated in presence or absence of UA was determined by CD19-positive Nalm-6 cell killing. Three days post transduction, CAR expression was determined and normalized to equal CAR T cell levels. Cells were washed twice and 0.5×10^4 CAR T cells were seeded into NutriT medium without cytokines, UA or DMSO. Nalm-6 cells were labeled using CellTrace™ Violet (CTV; Thermo Fisher Scientific, C34557) following manufacturer's instructions and 1×10^4 labeled Nalm-6 cells were added to the CAR T cells (0.5:1 effector to target ratio). The amount of dead target cells was determined via flow cytometry 24 h after start of killing.

Assay [2] relates to APTK-s.c. tumors. Put plainly: subcutaneous APTK tumors, UA-supplemented diet. It counts as in vivo, C57BL/6 mice. As for the experimental part:
Tumors were minced and digested with Tumor & Tissue Dissociation Reagent (BD Horizon) for 30 min. The remaining organ pieces were filtered through a 70 μm cell strainer. Cells were then washed with PBS 1% BSA and 2 mM EDTA. Immune cells were enriched on a 30%/40%/75% Percoll gradient after a 1700 rpm 17 min centrifugation. Then, tumor immune filtrates or activated T cells were stained with Fixable Viability Dye-eF780 (65-0865-14; eBioscience), αCD45-FITC (30-F11; 11-0451-85; eBioscience), αCD11b-BV650 (M1/70; 56340; BD) α-CD11C-BV785 (HL3; 563735; BD), αLy6G-BV605 (53-6.7; 563005; BD), αLy6C-AF700 (HK1.4; 128024; Biolegend), αF4/80-PE (BM8; 12-4801-82, eBioscience), αPD-L1-PECy7 (MIH5; 25-5982-80, eBioscience); or with Fixable Viability Dye-eF780 (ebioscience), αCD45-BV786 (30-F11; 564225; BD), αCD4-BUV496 (GK1.5; 564667; BD), αCD8-BV605 (100744; Biolegend), αPD1-APC (J43; 17-9985-82; eBioscience), αTIM-3-PECy7 (RMT3-23; 119715; Biolegend), αCTLA4-PE (UC10-4B9; 106305; Biolegend) and αLag3-BV421 (C9B7W; 125221, Biolegend); or with Fixable Viability Dye-eF780 (eBioscience), αCD4-FITC (H129.19; 553650; BD), αCD8-APC (53-6.7; 17-0081-83; eBioscience), αCD44-AF400 (IM7; 103026; Biolegend), αCD62L-BV785 (MEL-14; 104440; Biolegend), αSca-1-PerCP-Cy5.5 (D7; 45-5981-82; eBioscience), αCD95-PE (Jo2; 554258; BD); or with Fixable Viability Dye-eF780 (eBioscience), αCD8-BV650 (53-6.7; 563234; BD), αCD4-BUV496 (GK1.5; 564667; BD), αCD127-APC (A7R34; 17-1271-82; eBioscience), αCD95-FITC (SA367H8; 152605; Biolegend), αCD44-AF400 (IM7; 103026; Biolegend), αCD62L-BV785 (MEL-14; 104440; Biolegend), αSca-1-PerCP-Cy5.5 (D7; 45-5981-82; eBioscience) followed by intracellular staining of αTCF1-PE (S33-966; 564217; BD), or PGC-1α (sc-518025; D-5; santa cruz), or αCyclinD1 (MA5-28534, DCS-6; Invitrogen) with transcription factor buffer set kit (BD Biosciences). To study cytokine expression, tumor immune infiltrates were stimulated ex vivo with 20 ng/ml PMA and 1 μg/ml Ionomycin (Sigma) for 3 h in T cell activation medium with Brefeldin A (Biolegend).

Assay [3] deals with APTK-s.c. tumors. Put plainly: subcutaneous APTK tumors in Rag1-/- mice, UA diet. The note with it: absence of mature T and B cells; UA-containing vs control food.
The next assay deals with CEA-CAR T cells. Nature of the assay: UA applied to previously frozen CEA-CAR T cells. It counts as cell-based, human. Particulars: previously frozen CEA-specific CAR-T cells, UA for three days.
Another assay has as its system OT-1 T cells. Nature of the assay: adoptive transfer of UA-treated OT-1 T cells, engraftment. It counts as in vivo, Rag1^−/− mice. Particulars: seven days after transfer of T cells stimulated 48 h with UA (25 μM) vs DMSO. An excerpt:
Adoptive cell transfer (ACT) represents the infusion of antigen-specific leukocytes with direct antitumor activity, yet identification, selection and expansion of lymphocyte subsets harboring optimal antitumor qualities remains one of the most crucial challenges (Rosenberg and Restifo, 2015). ACT benefits especially from minimally differentiated cells due to their improved survival and long-term potential to generate unexhausted effector cells (Luca Gattinoni et al; Mo et al., 2021; Roberto et al., 2015). In particular, CD8^+ T cells restricted in a stem-like state have been associated with enhanced tumor suppressive properties upon adoptive cell transfer (Enrico Lugli et al; Verma et al., 2021). […] The inventors cultured T cells from OT-1 donor mice (FIG. 3A) for 48 hours in the presence of UA or vehicle control, followed by adoptive transfer into immunodeficient Rag1^−/− mice. […] Moreover, consistent with an improved memory response, animals receiving UA-pretreated T cells contained less Tim3^HiPD1^Hi terminally exhausted CD8^+ T cells in the TME (FIG. 3I). Thus, UA augments immune-mediated antitumor memory upon adoptive cell transfer.
For adoptive cell transfer transfer, purified splenic T cell from OT1 mice were isolated and activated using aCD3/aCD28 stimulation beads for 48 h. […] Tumor growth was assessed as described above. […]

Setting [4] is: restimulated with PMA/ionomycin ex vivo.

Consider `O=c1oc2cc(O)ccc2c2ccc(O)cc12` [UA, Urolithin A], for which the Th1/Th17 cell infiltration entry in assay [1] was “blocking”. For the same compound, the “CD19 CAR-T cell mediated killing of NALM-6 leukemia cells” value in the assay on Nalm-6 cells is reported as “did not have a negative impact”. The “mitochondrial content in TIL of APTK tumors” value in the assay with APTK-s.c. tumors [2] (CD8+ TIL, UA vs control diet) is on record as “increased”. Further, in the assay with APTK-s.c. tumors [2] (UA-containing vs control diet), the “CD4+ TSCM in APTK-induced tumors” value is on record as “no change”; the “TCF1 expression in tumor infiltrating CD8+ T cells” value is recorded as “increased expression”; the “dendritic cells (DCS), TAMs, or MDSC subsets in TME” value was “no change”. The “CD8+CD44loCD62LhiSca1hi T cells in APTK-induced tumors” value with APTK-s.c. tumors [2] (UA-containing vs control diet, CD8+ TIL) is “marked increase”. Also, in the assay with APTK-s.c. tumors [2] (UA-fed mice, CD8+ TIL), the “exhaustion marker CTLA-4 in CD8+ T cells” value is recorded as “reduction”, the “exhaustion marker PD-1 in CD8+ T cells” value is “reduction” and the “exhaustion marker Tim3 in CD8+ T cells” value is listed as “reduction”. Besides, in the assay on APTK-s.c. tumors [2] (UA-supplemented diet vs control food), the “CD8+ T cell infiltration in tumors” value is “enhanced”. Besides, in the assay on APTK-s.c. tumors [2] (setting [4]), the “induction of IFNg in tumor infiltrating CD8+ T cells” value is reported as “stronger induction” and the “induction of TNFa in tumor infiltrating CD8+ T cells” value was “stronger induction”. Also, in the assay with APTK-s.c. tumors [3], the “tumor growth (protective effect of UA)” value is listed as “abrogated the protective effect of UA”. In addition, in the assay on CEA-CAR T cells, the “CAR TSCM formation” value is recorded as “strongly enhanced”. In addition, the “number of engrafted (splenic) CD8+ T cells” value in the assay on OT-1 T cells is “significantly higher”.
